Test results as given in the Kinase Knowledgebase extract (Sharma et al. 2016).

What follows are compounds tested against EGFR (UniProt P00533).
Chain of EGFR (P00533 whole entry, looked up): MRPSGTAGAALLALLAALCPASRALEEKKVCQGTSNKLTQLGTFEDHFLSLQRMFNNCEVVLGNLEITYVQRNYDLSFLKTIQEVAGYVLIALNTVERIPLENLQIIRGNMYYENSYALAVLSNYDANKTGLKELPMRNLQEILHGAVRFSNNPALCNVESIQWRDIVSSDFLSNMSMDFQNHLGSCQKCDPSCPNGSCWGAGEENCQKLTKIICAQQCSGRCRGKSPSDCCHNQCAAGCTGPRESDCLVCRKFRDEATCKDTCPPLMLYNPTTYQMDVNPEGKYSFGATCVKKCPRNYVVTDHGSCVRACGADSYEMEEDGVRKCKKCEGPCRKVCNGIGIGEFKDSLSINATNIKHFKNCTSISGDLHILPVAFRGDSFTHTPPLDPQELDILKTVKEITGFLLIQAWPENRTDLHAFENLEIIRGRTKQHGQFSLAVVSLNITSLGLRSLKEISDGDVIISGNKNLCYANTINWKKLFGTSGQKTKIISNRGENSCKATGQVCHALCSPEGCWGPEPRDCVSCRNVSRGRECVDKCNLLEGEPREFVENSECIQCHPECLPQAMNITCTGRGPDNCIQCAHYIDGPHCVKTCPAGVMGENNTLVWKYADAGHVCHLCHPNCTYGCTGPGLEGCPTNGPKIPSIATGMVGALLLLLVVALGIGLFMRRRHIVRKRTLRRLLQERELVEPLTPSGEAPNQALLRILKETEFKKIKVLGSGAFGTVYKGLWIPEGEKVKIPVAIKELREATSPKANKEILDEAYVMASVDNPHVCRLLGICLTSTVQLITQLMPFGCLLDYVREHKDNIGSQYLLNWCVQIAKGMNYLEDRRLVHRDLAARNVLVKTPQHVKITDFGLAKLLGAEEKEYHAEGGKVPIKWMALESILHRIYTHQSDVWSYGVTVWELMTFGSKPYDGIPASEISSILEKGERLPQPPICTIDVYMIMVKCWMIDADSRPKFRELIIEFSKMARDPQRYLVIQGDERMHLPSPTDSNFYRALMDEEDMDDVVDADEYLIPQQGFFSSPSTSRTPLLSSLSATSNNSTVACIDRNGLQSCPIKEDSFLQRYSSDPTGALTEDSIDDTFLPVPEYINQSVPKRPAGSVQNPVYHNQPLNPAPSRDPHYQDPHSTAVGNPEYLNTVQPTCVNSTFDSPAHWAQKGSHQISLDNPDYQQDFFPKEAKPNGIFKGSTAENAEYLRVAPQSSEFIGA

Compound	IC50 [µM]
CCc1c(C(=O)N(C)C)cn2ncnc(Nc3ccc4c(cnn4Cc4ccccc4)c3)c12	0.003 to 25
Cc1c(C(=O)NCCCn2ccnn2)cn2ncnc(C3C(=O)Nc4ccccc43)c12 (stereo not given)	0.003 to 25
CCc1c(C(=O)NCCN2CCOCC2)cn2ncnc(Nc3ccc4c(cnn4Cc4ccccc4)c3)c12	0.003 to 25
COC(=O)c1cn2ncnc(-n3[nH]c(C)cc3=O)c2c1C	0.003 to 25
COC(=O)c1c(OC)c(OC)c2c(C3C(=O)Nc4ccccc43)ncnn12 (stereo not given)	0.003 to 25
COC(=O)c1cn2ncnc(C3C(=O)Nc4ccc(C(N)=O)cc43)c2c1C (stereo not given)	0.003 to 25
COC(=O)c1cn2ncnc(Cl)c2c1C	0.003 to 25
COC(=O)c1cn2ncnc(Nc3ccc4cn[nH]c4c3)c2c1C	0.003 to 25
CCOC(=O)c1cn2ncnc(NCC3CCC(C#N)CC3)c2c1CC (stereo not given)	0.003 to 25
COc1ccc(Nc2ncnn3cc(C(=O)NCCCN4CCOCC4)c(C)c23)cc1O	0.003 to 25
CCOC(=O)c1cn2ncnc(Nc3ccc4c(cnn4Cc4ccccc4)c3)c2c1Cc1ccccc1	0.003 to 25
COC(=O)c1cn2ncnc(Nc3ccc(C)c(N)c3)c2c1C	0.003 to 25
CCc1c(CO)cn2ncnc(Nc3ccc4c(cnn4Cc4ccccc4)c3)c12	0.003 to 25
COC(=O)c1cn2ncnc(-n3c(=O)[nH]c4ccccc43)c2c1C	0.003 to 25
Cc1c(C(=O)CCN2CCOCC2)cn2ncnc(C3C(=O)Nc4ccccc43)c12 (stereo not given)	0.003 to 25
Cc1c(NS(C)(=O)=O)cn2ncnc(C3C(=O)Nc4ccccc43)c12 (stereo not given)	0.003 to 25
COC(=O)c1cn2ncnc(Nc3cccc(NS(C)(=O)=O)c3)c2c1C	0.003 to 25
COC(=O)c1cn2ncnc(C3C(=O)Nc4cc(S(C)(=O)=O)ccc43)c2c1C (stereo not given)	0.003 to 25
Cc1ccc(Nc2ncnn3cc(C(=O)NCCCCN(C)C)c(C)c23)cc1O	0.003 to 25
CCc1c(C(=O)O)cn2ncnc(Nc3ccc(OC)nc3)c12	0.003 to 25
CCOC(=O)c1cn2ncnc(Nc3cccc(Br)c3)c2c1CC	0.003 to 25
COCCNC(=O)c1cn2ncnc(C3C(=O)Nc4ccccc43)c2c1C (stereo not given)	0.003 to 25
CCOC(=O)c1cn2ncnc(Nc3ccc(C)c(N)c3)c2c1CC	0.003 to 25

Next, values leading:

IC50 [µM]	Compound
0.003 to 25	Cc1c(CCCN2CCOCC2)cn2ncnc(Nc3cccc(Br)c3)c12
0.003 to 25	Cc1c(C(=O)NCCN2CCCC2)cn2ncnc(C3C(=O)Nc4ccccc43)c12 (stereo not given)
0.003 to 25	COC(=O)c1cn2ncnc(Nc3ccc(Br)c(O)c3)c2c1C
0.003 to 25	COC(=O)c1cc2c(Nc3ccc(F)c(Cl)c3)ncnn2c1
0.003 to 25	CCOC(=O)c1cn2ncnc(Nc3ccc(C)cc3)c2c1CC
0.003 to 25	COC(=O)c1cn2ncnc(Nc3cccc(C(=O)O)c3)c2c1C
0.003 to 25	Cc1c(C(=O)O)cn2ncnc(C3C(=O)Nc4ccccc43)c12 (stereo not given)
0.003 to 25	Cc1ccc(Nc2ncnn3cc(C(=O)N4CCN(C)CC4)c(C)c23)cc1O
0.003 to 25	COC(=O)c1cn2ncnc(Nc3ccc4[nH]nnc4c3)c2c1C
0.003 to 25	COC(=O)CCc1cn2ncnc(C3C(=O)Nc4ccccc43)c2c1C (stereo not given)
0.003 to 25	COC(=O)c1cn2ncnc(N3CCc4ccccc43)c2c1C
0.003 to 25	COC(=O)c1cn2ncnc(Nc3ccc(OC)nc3)c2c1C
0.003 to 25	COC(=O)c1cn2ncnc(C3C(=O)Nc4ccc(NS(C)(=O)=O)cc43)c2c1C (stereo not given)
0.003 to 25	Cc1c(C(=O)NCCCN2CCOCC2)cn2ncnc(Nc3ccc(Br)c(O)c3)c12
0.003 to 25	COC(=O)c1cn2ncnc(Nc3ccc(F)c(Cl)c3)c2c1C
0.003 to 25	CCc1c(C(=O)NCCN2CCOCC2)c(Br)n2ncnc(Nc3ccc4c(cnn4Cc4ccccc4)c3)c12
0.003 to 25	COC(=O)c1cn2ncnc(Nc3cccc(C#N)c3)c2c1C
0.003 to 25	Cc1c(NC(=O)NCCCCN2CCOCC2)cn2ncnc(C3C(=O)Nc4ccccc43)c12 (stereo not given)
0.003 to 25	COC(=O)c1cn2ncnc(Nc3ccc4c(c3)NCC4)c2c1C
0.003 to 25	COC(=O)c1cn2ncnc(Nc3ccc(C(=O)O)c(O)c3)c2c1C
0.003 to 25	CCc1nc(C2C(=O)Nc3ccccc32)c2c(C)c(C(=O)NCCCN(C)C)cn2n1 (stereo not given)
0.003 to 25	COC(=O)c1cn2ncnc(-n3[nH]c(=O)c4ccccc43)c2c1C
